Assay results from paper PMC11313072, “Copper(II) and Zinc(II) Complexes with Bacterial Prodigiosin Are Targeting Site III of Bovine Serum Albumin and Acting as DNA Minor Groove Binders” (International Journal of Molecular Sciences, 2024).

Target: T1, bovine serum albumin (BSA) (Bos taurus, UniProt P02769)
T1 construct: gene ALB; commercial native full-length BSA (Sigma-Aldrich), mature secreted protein
Test: tryptophan fluorescence quenching
Type: binding
Details: PBS pH 7.4, BSA 5 μM, excitation 280 nm, no site marker, double-log
Excerpt: tryptophan fluorescence quenching on bovine serum albumin (BSA)

T1 sequence (P02769 25-607): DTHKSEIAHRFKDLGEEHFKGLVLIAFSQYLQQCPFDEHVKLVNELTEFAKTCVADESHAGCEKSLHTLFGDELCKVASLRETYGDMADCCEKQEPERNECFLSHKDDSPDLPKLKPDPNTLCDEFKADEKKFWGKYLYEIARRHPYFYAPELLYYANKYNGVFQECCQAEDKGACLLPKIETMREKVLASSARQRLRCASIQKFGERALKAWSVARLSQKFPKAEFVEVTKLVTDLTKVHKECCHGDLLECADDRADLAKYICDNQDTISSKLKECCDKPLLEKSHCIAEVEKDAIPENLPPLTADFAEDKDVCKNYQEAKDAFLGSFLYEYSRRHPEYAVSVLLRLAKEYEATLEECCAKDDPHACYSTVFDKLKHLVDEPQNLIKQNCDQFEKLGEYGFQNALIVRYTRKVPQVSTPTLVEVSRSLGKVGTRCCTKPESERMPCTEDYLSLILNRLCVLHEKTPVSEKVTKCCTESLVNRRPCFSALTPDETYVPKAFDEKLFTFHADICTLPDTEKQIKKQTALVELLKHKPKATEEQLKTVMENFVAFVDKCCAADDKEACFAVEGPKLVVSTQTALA

CCCCCC1=C/C(=C/c2[nH]c(-c3ccc[nH]3)cc2OC)N=C1C [PG, prodigiosin]
KA (n = 0.97): 5770 M⁻¹

CuPG
KA (n = 1.41): 805000 M⁻¹

ZnPG
KA (n = 1.07): 7140 M⁻¹
